In patent publication US20070055448A1, “Primary rat hepatocyte toxicity modeling” (Gene Logic Inc., priority 2003, published 2007):

Columns and labels:
[1] = human, in vivo; cited from earlier work
[2] = 180 reported cases; cited from earlier work
[3] = dogs, after treatment; cited from earlier work
[4] = 0.1, 1, 2, 3, 4 mL/kg ip; 2.5 mL/kg po; peak within 48 hours post dose; cited from earlier work
[5] = AY-25329 repeated-dose rat study: serum chemistry and light microscopy; assay type: in vivo, rats
Description: The present inventors have noted indications of liver and renal effects of AY-25329 by changes in serum chemistry. […] Most of these markers of renal and liver dysfunction remained altered throughout the 14 day study period.

[6] = oral doses; cited from earlier work
[7] = Lovastatin rat dosing study: liver tissue examination; assay type: in vivo, rats

CCCC(CCC)C(=O)O [valproate, n-dipropylacetic acid]
patients with elevated levels of hepatic enzymes [1]: about 40 % of patients

O=C(O)Cc1ccccc1Nc1c(Cl)cccc1Cl [diclofenac]
jaundice among symptomatic patients [2]: 75 % of the symptomatic patients

Cl.Nc1nc2c(Cc3ccsc3)c[nH]c2c(=O)[nH]1.O [CI-1000, 4H-pyrrolo:3,2-d:pyrimidin-4-one, 2-amino-3,5-dihydro-7-(3-thienylmethyl)-monohydrochloride monohydrate]
serum ALT levels [3]: increased serum ALT levels

ClC(Cl)(Cl)Cl [CCl4, carbon tetrachloride]
peak increase of ALT and AST levels [4]: 5-10 fold

O=C(CCN1CCN2CCCC2C1)N1c2ccccc2Sc2ccc(Cl)cc21 (stereo not shown) [AY-25329]
histopathology of kidney and liver ([5]; 14 days of repeated dosing, 250 mg/kg/day): nephrosis and alterations in the peripheral lobes of the liver and in the cytoplasm of hepatocytes were evident
light microscopic analysis of the liver ([5]; as early as 6 and 24 hours): increased number of hepatocytic mitotic figures and decreased glycogen content
serum levels of creatinine, BUN, ALT, triglycerides and cholesterol ([5]; as early as 6 hours after the first dose, most markers remained altered throughout the 14 day study period): statistically significant increases

CC[C@H](C)C(=O)O[C@H]1C[C@@H](C)C=C2C=C[C@H](C)[C@H](CC[C@@H]3C[C@@H](O)CC(=O)O3)[C@H]21 [lovastatin]
metabolites excreted in the urine [6]: less than 13%
effects in liver tissue ([7]; 9 or 90 mg/kg twice a day, after 6 or after 24 hours): no effects were noted
liver cell changes ([7]; after 14 days of treatment at the higher dosage (90 mg/kg twice a day)): abnormal vacuolization of the cytoplasm
